# Test: recombinant UMI read abundance after kanamycin selection (control-corrected) (log10(CPM+1)); higher = more efficient recombination; extreme values may be limits of the assay; sequences stand for … in AGTGCAGAGAAAATCGGCCAGTTTTCTCTGCCTGCAGTCCGCATGCCGTGGGACCCCTTGGGTTCTAACCTGTTGCCTAGATTTATGCAGCGGACTGCCTTTCTCCCAAAGTGATAAACCGG…AGGTTGGTTTCACT; site = the 11-nt donor
# Procedure, shortened: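 Pooled Escherichia coli screen of donor and donor-binding-loop pairs for the IS621 bridge recombinase. Each pair sits with a 12-nt UMI on a plasmid carrying a promoterless kanamycin gene. The library was co-electroporated with a target plasmid encoding a fixed target and T7-inducible recombinase, then plated with IPTG (0.07 mM) plus kanamycin, or unselected, each in two replicates. Recombinant UMIs were PCR-amplified across the donor–target junction and sequenced. Counts became CPM, averaged over replicates, scaled by control-derived factors and reported as log10(CPM+1).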
row,Sequence,recombinant UMI read abundance (log10)
1,CGGGAACCATGGACCGGTTTTCCCGGTAATCCGTATTTGAG (site CGGGAACCTGT),0
2,CGGGAACCATGGACCGGTTTTCCCGGTAATCCGTATTTGAG (site CGGGAACCTTT),0
3,CGGGAACCATGGACCGGTTTTCCCGGTAATCCGTATTTGCG (site CGGGAACCTCG),0
4,CGGGAACCATGGACCGGTTTTCCCGGTAATCCGTATTTGTT (site CGGAATCCTAA),0
5,CGGGAACCATGGACCGGTTTTCCCGGTAATCCGTATTTGTT (site CGGGAACCTAA),0.47
6,CGGGAACCATGGACCGGTTTTCCCGGTAATCCGTATTTGTT (site CGGGAACCTAC),0
7,CGGGAACCATGGACCGGTTTTCCCGGTAATCCGTATTTGTT (site CGGGAACCTAG),0
8,CGGGAACCATGGACCGGTTTTCCCGGTAATCCGTATTTGTT (site CGGGAACCTAT),0.0108
9,CGGGAGACATGGACCGGTTTTCCCGGTAATCCGTATTTGCC (site CGGGAGACTGG),1.58
10,CGGGAGACATGGACCGGTTTTCCCGGTAATCCGTATTTGCC (site CGGGAGCCTGG),0
11,CGGGAGACATGGACCGGTTTTCCCGGTAATCCGTATTTGCC (site CGGGAGGCTGG),1.69
12,CGGGAGACATGGACCGGTTTTCCCGGTAATCCGTATTTGCC (site CGGGAGTCTGG),0.663
13,CGGGAGTCATGGACCGGTTTTCCCGGTAATCCGTATTTGCG (site CGGGAGTCTAG),1.03
14,CGGGAGTCATGGACCGGTTTTCCCGGTAATCCGTATTTGCG (site CGGGAGTCTCG),2.8
15,CGGGAGTCATGGACCGGTTTTCCCGGTAATCCGTATTTGCG (site CGGGAGTCTGG),0
16,CGGGAGTCATGGACCGGTTTTCCCGGTAATCCGTATTTGCG (site CGGGAGTCTTG),0.888
17,CGGGAGTCATGGACCGGTTTTCCCGGTAATCCGTATTTGGC (site CGGGAGTCTGA),1.59
18,CGGGAGTCATGGACCGGTTTTCCCGGTAATCCGTATTTGGC (site CGGGAGTCTGC),2.76
19,CGGGAGTCATGGACCGGTTTTCCCGGTAATCCGTATTTGGC (site CGGGAGTCTGG),0.911
20,CGGGAGTCATGGACCGGTTTTCCCGGTAATCCGTATTTGGC (site CGGGAGTCTGT),1.96
21,CGGGATCCATGGACCGGTTTTCCCGGTAATCCGTATTTGCT (site CGGAATCCTAA),0.0224
22,CGGGATCCATGGACCGGTTTTCCCGGTAATCCGTATTTGCT (site CGGGATCCTAG),0
23,CGGGCACCATGGACCGGTTTTCCCGGTAATCCGTATTTGCA (site AGGGCACCTTG),0.0117
24,CGGGCACCATGGACCGGTTTTCCCGGTAATCCGTATTTGCA (site CGGGCACCTTG),0
25,CGGGCACCATGGACCGGTTTTCCCGGTAATCCGTATTTGCA (site GGGGCACCTTG),0.00963

row,Sequence,recombinant UMI read abundance (log10)
1,CGGGCACCATGGACCGGTTTTCCCGGTAATCCGTATTTGCA (site TGGGCACCTTG),0
2,CGGGGACCATGGACCGGTTTTCCCGGTAATCCGTATTTGAT (site CGGGAACCTAT),0
3,CGGGGACCATGGACCGGTTTTCCCGGTAATCCGTATTTGAT (site CGGGCACCTAT),0.00825
4,CGGGGACCATGGACCGGTTTTCCCGGTAATCCGTATTTGAT (site CGGGGACCTAT),0
5,CGGGGACCATGGACCGGTTTTCCCGGTAATCCGTATTTGAT (site CGGGTACCTAT),0
6,CGGGGACCATGGACCGGTTTTCCCGGTAATCCGTATTTGGG (site CGAGGACCTCC),0.0137
7,CGGGGACCATGGACCGGTTTTCCCGGTAATCCGTATTTGGG (site CGCGGACCTCC),0.0363
8,CGGGGACCATGGACCGGTTTTCCCGGTAATCCGTATTTGGG (site CGGGGACCTCC),0.0134
9,CGGGGACCATGGACCGGTTTTCCCGGTAATCCGTATTTGGG (site CGTGGACCTCC),0.00366
10,CGGGGCGCATGGACCGGTTTTCCCGGTAATCCGTATTTGAA (site CGGGGCGCTTT),1.26
11,CGGGGCGCATGGACCGGTTTTCCCGGTAATCCGTATTTGGC (site CGGGGCGCTGC),3.06
12,CGGGGCTCATGGACCGGTTTTCCCGGTAATCCGTATTTGCA (site CGGGGCTCTTG),2.79
13,CGGGGTCCATGGACCGGTTTTCCCGGTAATCCGTATTTGAT (site CGGGGTCCTAT),0
14,CGGGTTGCATGGACCGGTTTTCCCGGTAATCCGTATTTGGT (site CGGGTTGCTAC),1.77
15,CGGTACCCATGGACCGGTTTTCCCGGTAATCCGTATTTGAG (site CGGTACCCTCT),0.188
16,CGGTCACCATGGACCGGTTTTCCCGGTAATCCGTATTTGTA (site CGGTCACCTTA),0
17,CGGTCATCATGGACCGGTTTTCCCGGTAATCCGTATTTGCA (site CGATCATCTAG),0.01
18,CGGTCATCATGGACCGGTTTTCCCGGTAATCCGTATTTGCA (site CGGTCATCTTG),0.39
19,CGGTCCTCATGGACCGGTTTTCCCGGTAATCCGTATTTGCA (site CGGTCCTCTTG),0
20,CGGTCTGCATGGACCGGTTTTCCCGGTAATCCGTATTTGAG (site CGGTCTGCTCT),0.251
21,CGGTTGCCATGGACCGGTTTTCCCGGTAATCCGTATTTGGC (site CGGTTGCCTGC),0
22,CGTAATCCATGGACCGGTTTTCCCGGTAATCCGTATTTGAT (site CGGAATCCTAA),0
23,CGTAATCCATGGACCGGTTTTCCCGGTAATCCGTATTTGAT (site CGTAATCCTAT),0.697
24,CGTAATCCATGGACCGGTTTTCCCGGTAATCCGTATTTGTC (site CGGAATCCTAA),0
25,CGTAATCCATGGACCGGTTTTCCCGGTAATCCGTATTTGTC (site CGTAATCCTGA),1.47

row,Sequence,recombinant UMI read abundance (log10)
1,CGTACACCATGGACCGGTTTTCCCGGTAATCCGTATTTGAC (site AGTACACCTGT),0
2,CGTACACCATGGACCGGTTTTCCCGGTAATCCGTATTTGAC (site CGTACACCTGT),0
3,CGTACACCATGGACCGGTTTTCCCGGTAATCCGTATTTGAC (site GGTACACCTGT),0
4,CGTACACCATGGACCGGTTTTCCCGGTAATCCGTATTTGAC (site TGTACACCTGT),0
5,CGTACCGCATGGACCGGTTTTCCCGGTAATCCGTATTTGTC (site CGTACCGCTGA),2.78
6,CGTAGATCATGGACCGGTTTTCCCGGTAATCCGTATTTGCA (site CGTAGATCTTG),2.44
7,CGTAGTCCATGGACCGGTTTTCCCGGTAATCCGTATTTGTT (site CGGAATCCTAA),0
8,CGTAGTCCATGGACCGGTTTTCCCGGTAATCCGTATTTGTT (site CGTAGTCCTAA),0.247
9,CGTATACCATGGACCGGTTTTCCCGGTAATCCGTATTTGAA (site CGTATACCTTT),0.0161
10,CGTATGGCATGGACCGGTTTTCCCGGTAATCCGTATTTGTG (site CGTATGGCTCA),1.33
11,CGTATGTCATGGACCGGTTTTCCCGGTAATCCGTATTTGGT (site CGTATGTCTAC),1.59
12,CGTATTCCATGGACCGGTTTTCCCGGTAATCCGTATTTGTG (site CGTATTCCTCA),0.0112
13,CGTCACTCATGGACCGGTTTTCCCGGTAATCCGTATTTGGC (site CGTCACTCTGC),2.8
14,CGTCCAACATGGACCGGTTTTCCCGGTAATCCGTATTTGTA (site AGTCCAACTTA),0.00336
15,CGTCCAACATGGACCGGTTTTCCCGGTAATCCGTATTTGTA (site CGTCCAACTTA),1.61
16,CGTCCAACATGGACCGGTTTTCCCGGTAATCCGTATTTGTA (site GGTCCAACTTA),0.0127
17,CGTCCAACATGGACCGGTTTTCCCGGTAATCCGTATTTGTA (site TGTCCAACTTA),0.0409
18,CGTCTAGCATGGACCGGTTTTCCCGGTAATCCGTATTTGGC (site CGTCTAGCTGC),2.07
19,CGTCTCACATGGACCGGTTTTCCCGGTAATCCGTATTTGGT (site CGTCTCACTAC),1.62
20,CGTCTTACATGGACCGGTTTTCCCGGTAATCCGTATTTGTA (site CGTCTTACTTA),0.00853
21,CGTGGAACATGGACCGGTTTTCCCGGTAATCCGTATTTGCT (site CGTGGAACTAA),0.202
22,CGTGGAACATGGACCGGTTTTCCCGGTAATCCGTATTTGCT (site CGTGGAACTAC),0.00778
23,CGTGGAACATGGACCGGTTTTCCCGGTAATCCGTATTTGCT (site CGTGGAACTAG),2.18
24,CGTGGAACATGGACCGGTTTTCCCGGTAATCCGTATTTGCT (site CGTGGAACTAT),0.45
25,CGTGGAACATGGACCGGTTTTCCCGGTAATCCGTATTTGTA (site CGTGGAACTAA),0.00446

# Reference: the supplement of paper PMC11208160
